28 molecules from US10329289B2, “6,7-dihydro-5H-pyrrolo[3,4-B]pyridin-5-one allosteric modulators of the M4 muscarinic acetylcholine receptor” (Merck Sharp & Dohme Corp., priority 2015, dated 2019) can be followed below.

This experiment has as its target T1, human M4 muscarinic acetylcholine receptor (Homo sapiens, UniProt P08173).
T1 construct: expressed in transfected cells; host or cells: CHO-K1
T1 sequence (P08173 1-479): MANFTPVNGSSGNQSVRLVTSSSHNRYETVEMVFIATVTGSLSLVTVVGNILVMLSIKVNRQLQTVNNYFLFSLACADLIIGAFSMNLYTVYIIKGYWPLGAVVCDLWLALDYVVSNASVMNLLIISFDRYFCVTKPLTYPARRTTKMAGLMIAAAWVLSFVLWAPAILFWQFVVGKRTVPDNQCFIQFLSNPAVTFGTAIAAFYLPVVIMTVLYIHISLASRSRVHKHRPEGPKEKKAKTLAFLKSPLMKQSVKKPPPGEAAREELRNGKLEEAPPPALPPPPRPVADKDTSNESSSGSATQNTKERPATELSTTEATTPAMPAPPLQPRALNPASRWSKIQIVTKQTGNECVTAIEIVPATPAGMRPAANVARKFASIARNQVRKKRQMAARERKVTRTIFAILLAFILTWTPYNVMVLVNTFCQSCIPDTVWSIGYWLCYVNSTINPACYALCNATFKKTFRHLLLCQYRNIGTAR
Put plainly: human FLIPR-based M4 PAM assay (Ca2+ mobilization, CHO-K1 cells with human M4 receptor and Gαqi5). The format is cell-based. The settings on record: acetylcholine at 20% of maximum response, read-out: M4 PAM IP. The method, boiled down:
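CHO-K1 cells stably expressing human M4 and chimeric Gαqi5 were dye-loaded ~1 h at 37 °C and read for Ca2+ fluorescence. Compound followed by acetylcholine at an EC20 (sometimes an EC70 third addition); inflection point from a 4-parameter logistic fit.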
In general terms: A change in cytosolic calcium serves as a functional read-out for many receptors and channels.
Take `Cc1c(N2CCC(Oc3ccc4c(c3)C[C@@H](O)C4)CC2)nc2c(c1C)C(=O)NC2` [Example 334B, (S)-2-(4-((2-hydroxy-2,3-dihydro-1H-inden-5-yl)oxy)piperidin-1-yl)-3,4-dimethyl-6,7-dihydro-5H-pyrrolo[3,4-b]pyridin-5-one]: the EC50 was 0.038 µM.

In the case of `CO[C@@H]1Cc2ccc(OC3CCN(c4nc5c(c(C)c4C)C(=O)NC5)CC3)cc2C1` [Example 335A, (R)-2-(4-((2-methoxy-2,3-dihydro-1H-inden-5-yl)oxy)piperidin-1-yl)-3,4-dimethyl-6,7-dihydro-5H-pyrrolo[3,4-b]pyridin-5-one], the EC50 is 0.245 µM.

On to `CO[C@H]1Cc2ccc(OC3CCN(c4nc5c(c(C)c4C)C(=O)NC5)CC3)cc2C1` [Example 335B, (5)-2-(4-((2-methoxy-2,3-dihydro-1H-inden-5-yl)oxy)piperidin-1-yl)-3,4-dimethyl-6,7-dihydro-5H-pyrrolo[3,4-b]pyridin-5-one], for which the EC50 was 0.259 µM.

As for `Cc1c(N2CCC(Oc3ccc4c(c3)CCOC4)CC2)nc2c(c1C)C(=O)NC2` [Example 336, 2-(4-(isochroman-6-yloxy)piperidin-1-yl)-3,4-dimethyl-6,7-dihydro-5H-pyrrolo[3,4-b]pyridin-5-one], the EC50 stood at 0.182 µM.

As for `Cc1c(N2CC[C@@H](Oc3cnn(C)c3)C(F)(F)C2)nc2c(c1C)C(=O)NC2` [Example 336B, (R)-2-(3,3-difluoro-4-((1-methyl-1H-pyrazol-4-yl)oxy)piperidin-1-yl)-3,4-dimethyl-6,7-dihydro-5H-pyrrolo[3,4-b]pyridin-5-one], the EC50 was found to be 0.65 µM.

As to `Cc1c(N2CC[C@H](Oc3cnn(C)c3)C(F)(F)C2)nc2c(c1C)C(=O)NC2` [Example 336C, (S)-2-(3,3-difluoro-4-((l-methyl-1H-pyrazol-4-yl)oxy)piperidin-1-yl)-3,4-dimethyl-6,7-dihydro-5H-pyrrolo[3,4-b]pyridin-5-one], the EC50 amounted to 0.033 µM.

Regarding `Cc1cc2c(nc1N1CCC(OCC3(C)CC3)CC1)CN(C)C2=O` [Example 338, 3,6-dimethyl-2-(4-((1-methylcyclopropyl)methoxy)piperidin-1-yl)-6,7-dihydro-5H-pyrrolo[3,4-b]pyridin-5-one], the EC50 came out at 0.04 µM.

With `Cc1cc2c(nc1N1CCC(OCC3(C)CC3)CC1)[C@@H](CO)N(C)C2=O` [Example 339, (S)-7-(hydroxymethyl)-3,6-dimethyl-2-(4-((1-methylcyclopropyl)methoxy)piperidin-1-yl)-6,7-dihydro-5H-pyrrolo[3,4-b]pyridin-5-one], the EC50 came out at 0.013 µM.

As for `Cc1cc2c(nc1N1CCC(OCC3(C)CC3)CC1)[C@H](CO)N(C)C2=O` [Example 340, (R)-7-(hydroxymethyl)-3,6-dimethyl-2-(4-((1-methylcyclopropyl)methoxy)piperidin-1-yl)-6,7-dihydro-5H-pyrrolo[3,4-b]pyridin-5-one], the EC50 is 2.98 µM.

For the molecule `CCc1cc2c(nc1N1CCC(OCC3(C)CC3)CC1)[C@@H](CO)N(C)C2=O` [Example 341, (S)-3-ethyl-7-(hydroxymethyl)-6-methyl-2-(4-((1-methylcyclopropyl)methoxy)piperidin-1-yl)-6,7-dihydro-5H-pyrrolo[3,4-b]pyridin-5-one], the EC50 was 0.023 µM.

Consider `Cc1c(N2CC[C@@H](OCC3(C)CC3)[C@@H](F)C2)nc2c(c1C)C(=O)N(C)[C@@H]2CO` [Example 341A, (S)-2-((3S,4R)-3-fluoro-4-((1-methylcyclopropyl)methoxy)piperidin-1-yl)-7-(hydroxymethyl)-3,4,6-trimethyl-6,7-dihydro-5H-pyrrolo[3,4-b]pyridin-5-one], for which the EC50 came out at 0.009 µM.

Turning to `CCc1cc2c(nc1N1CCC(OCC3(C)CC3)CC1)[C@H](CO)N(C)C2=O` [Example 342, (R)-3-ethyl-7-(hydroxymethyl)-6-methyl-2-(4-((1-methylcyclopropyl)methoxy)piperidin-1-yl)-6,7-dihydro-5H-pyrrolo[3,4-b]pyridin-5-one], the EC50 amounted to 3.44 µM.

Take `Cc1c(N2CC[C@@H](OCC3(C)CC3)[C@@H](F)C2)nc2c(c1C)C(=O)N(C)[C@H]2CO` [Example 342A, (R)-2-((3S,4R)-3-fluoro-4-((1-methylcyclopropyl)methoxy)piperidin-1-yl)-7-(hydroxymethyl)-3,4,6-trimethyl-6,7-dihydro-5H-pyrrolo[3,4-b]pyridin-5-one]: the EC50 stood at 0.884 µM.

As to `Cc1cncc(OC2CCN(c3nc4c(cc3C)C(=O)N(C)[C@@H]4CO)CC2)c1` [Example 343, (S)-7-(hydroxymethyl)-3,6-dimethyl-2-(4-((5-methylpyridin-3-yl)oxy)piperidin-1-yl)-6,7-dihydro-5H-pyrrolo[3,4-b]pyridin-5-one], the EC50 was found to be 0.055 µM.

With `COc1ccc(OC2CCN(c3nc4c(c(C)c3C)C(=O)N(C)[C@@H]4CO)CC2)cn1` [Example 343A, (S)-7-(hydroxymethyl)-2-(4-((6-methoxypyridin-3-yl)oxy)piperidin-1-yl)-3,4,6-trimethyl-6,7-dihydro-5H-pyrrolo[3,4-b]pyridin-5-one], the EC50 turned out to be 0.027 µM.

Consider `Cc1cncc(OC2CCN(c3nc4c(cc3C)C(=O)N(C)[C@H]4CO)CC2)c1` [Example 344, (R)-7-(hydroxymethyl)-3,6-dimethyl-2-(4-((5-methylpyridin-3-yl)oxy)piperidin-1-yl)-6,7-dihydro-5H-pyrrolo[3,4-b]pyridin-5-one], for which the EC50 was found to be 1.22 µM.

`COc1ccc(OC2CCN(c3nc4c(c(C)c3C)C(=O)N(C)[C@H]4CO)CC2)cn1` [Example 344A, (R)-7-(hydroxymethyl)-2-(4-((6-methoxypyridin-3-yl)oxy)piperidin-1-yl)-3,4,6-trimethyl-6,7-dihydro-5H-pyrrolo[3,4-b]pyridin-5-one]: the EC50 stood at 0.76 µM.

With `Cc1cc2c(nc1N1CCC(Oc3cccc(C#N)c3)CC1)[C@@H](CO)N(C)C2=O` [Example 345, (S)-3-((1-(7-(hydroxymethyl)-3,6-dimethyl-5-oxo-6,7-dihydro-5H-pyrrolo[3,4-b]pyridin-2-yl)piperidin-4-yl)oxy)benzonitrile], the EC50 worked out at 0.023 µM.

As to `Cc1cc2c(nc1N1CCC(Oc3cccc(C#N)c3)CC1)[C@H](CO)N(C)C2=O` [Example 346, (R)-3-((1-(7-(hydroxymethyl)-3,6-dimethyl-5-oxo-6,7-dihydro-5H-pyrrolo[3,4-b]pyridin-2-yl)piperidin-4-yl)oxy)benzonitrile], the EC50 came to 3.08 µM.

Turning to `Cc1cc2c(nc1N1CCC(Oc3ccc(F)c(F)c3)CC1)[C@@H](CO)N(C)C2=O` [Example 347, (S)-2-(4-(3,4-difluorophenoxy)piperidin-1-yl)-7-(hydroxymethyl)-3,6-dimethyl-6,7-dihydro-5H-pyrrolo[3,4-b]pyridin-5-one], the EC50 is 0.028 µM.

Regarding `Cc1cc2c(nc1N1CCC(Oc3ccc(F)c(F)c3)CC1)[C@H](CO)N(C)C2=O` [Example 348, (R)-2-(4-(3,4-difluorophenoxy)piperidin-1-yl)-7-(hydroxymethyl)-3,6-dimethyl-6,7-dihydro-5H-pyrrolo[3,4-b]pyridin-5-one], the EC50 is 8.17 µM.

Consider `Cc1cc2c(nc1N1CCC(Oc3ccc4c(c3)COCC4)CC1)[C@@H](CO)N(C)C2=O` [Example 349, (S)-7-(hydroxymethyl)-2-(4-(isochroman-7-yloxy)piperidin-1-yl)-3,6-dimethyl-6,7-dihydro-5H-pyrrolo[3,4-b]pyridin-5-one], for which the EC50 was 0.022 µM.

As to `Cc1cc2c(nc1N1CCC(Oc3ccc4c(c3)CCOC4)CC1)[C@@H](CO)N(C)C2=O` [Example 349A, (S)-7-(hydroxymethyl)-2-(4-(isochroman-6-yloxy)piperidin-1-yl)-3,6-dimethyl-6,7-dihydro-5H-pyrrolo[3,4-b]pyridin-5-one], the EC50 was 0.022 µM.

Regarding `Cc1cc2c(nc1N1CCC(Oc3ccc4c(c3)COCC4)CC1)[C@H](CO)N(C)C2=O` [Example 350, (R)-7-(hydroxymethyl)-2-(4-(isochroman-7-yloxy)piperidin-1-yl)-3,6-dimethyl-6,7-dihydro-5H-pyrrolo[3,4-b]pyridin-5-one], the EC50 worked out at 0.98 µM.

With `CCc1cc2c(nc1N1CCC(Oc3ccc4c(c3)COC4)CC1)[C@@H](CO)N(C)C2=O` [Example 351, (S)-2-(4-((1,3-dihydro-2-benzofuran-5-yl)oxy)piperidin-1-yl)-3-ethyl-7-(hydroxymethyl)-6-methyl-6,7-dihydro-5H-pyrrolo[3,4-b]pyridin-5-one], the EC50 worked out at 0.04 µM.

With `CCN1C(=O)c2c(nc(N3CCC(Oc4ccc5c(c4)COC5)CC3)c(C)c2C)[C@H]1CO` [Example 351A, (S)-2-(4-((1,3-dihydroisobenzofuran-5-yl)oxy)piperidin-1-yl)-6-ethyl-7-(hydroxymethyl)-3,4-dimethyl-6,7-dihydro-5H-pyrrolo[3,4-b]pyridin-5-one], the EC50 was determined as 0.019 µM.

As for `CCc1cc2c(nc1N1CCC(Oc3ccc4c(c3)COC4)CC1)[C@H](CO)N(C)C2=O` [Example 352, can-2-(4-((1,3-dihydro-2-benzofuran-5-yl)oxy)piperidin-1-yl)-3-ethyl-7-(hydroxymethyl)-6-methyl-6,7-dihydro-5H-pyrrolo[3,4-b]pyridin-5-one], the EC50 turned out to be 2.1 µM.

Take `Cc1c(N2CCC(Oc3ccc(F)cc3)CC2)nc2c(c1C)C(=O)N(C)[C@@H]2CO` [Example 353, (S)-2-(4-(4-fluorophenoxy)piperidin-1-yl)-7-(hydroxymethyl)-3,4,6-trimethyl-6,7-dihydro-5H-pyrrolo[3,4-b]pyridin-5-one]: the EC50 was 0.03 µM.
